The target in this test is human Nav1.7 (Homo sapiens (Human), UniProt Q15858). The experiment in a line: FRET-based membrane potential assay, recombinant human sodium channel Nav1.7. The format is cell-based. The conditions noted are these: HEK293 cells stably expressing recombinant human Nav1.7; depolarization with veratridine (EC80) + scorpion venom. An outline of the steps:
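IC50 derived by four-parameter Hill fit of percent inhibition of depolarization, measured as peak F440-480/F565-625 ratio over baseline. Stable human Nav1.7 HEK293 cells, dye-loaded with CC2-DMPE and DiSBAC2(3)/VABSC-1 at room temperature, received compound 3 min ahead of veratridine (EC80) plus scorpion venom.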
human Nav1.7, sequence (Q15858 whole entry): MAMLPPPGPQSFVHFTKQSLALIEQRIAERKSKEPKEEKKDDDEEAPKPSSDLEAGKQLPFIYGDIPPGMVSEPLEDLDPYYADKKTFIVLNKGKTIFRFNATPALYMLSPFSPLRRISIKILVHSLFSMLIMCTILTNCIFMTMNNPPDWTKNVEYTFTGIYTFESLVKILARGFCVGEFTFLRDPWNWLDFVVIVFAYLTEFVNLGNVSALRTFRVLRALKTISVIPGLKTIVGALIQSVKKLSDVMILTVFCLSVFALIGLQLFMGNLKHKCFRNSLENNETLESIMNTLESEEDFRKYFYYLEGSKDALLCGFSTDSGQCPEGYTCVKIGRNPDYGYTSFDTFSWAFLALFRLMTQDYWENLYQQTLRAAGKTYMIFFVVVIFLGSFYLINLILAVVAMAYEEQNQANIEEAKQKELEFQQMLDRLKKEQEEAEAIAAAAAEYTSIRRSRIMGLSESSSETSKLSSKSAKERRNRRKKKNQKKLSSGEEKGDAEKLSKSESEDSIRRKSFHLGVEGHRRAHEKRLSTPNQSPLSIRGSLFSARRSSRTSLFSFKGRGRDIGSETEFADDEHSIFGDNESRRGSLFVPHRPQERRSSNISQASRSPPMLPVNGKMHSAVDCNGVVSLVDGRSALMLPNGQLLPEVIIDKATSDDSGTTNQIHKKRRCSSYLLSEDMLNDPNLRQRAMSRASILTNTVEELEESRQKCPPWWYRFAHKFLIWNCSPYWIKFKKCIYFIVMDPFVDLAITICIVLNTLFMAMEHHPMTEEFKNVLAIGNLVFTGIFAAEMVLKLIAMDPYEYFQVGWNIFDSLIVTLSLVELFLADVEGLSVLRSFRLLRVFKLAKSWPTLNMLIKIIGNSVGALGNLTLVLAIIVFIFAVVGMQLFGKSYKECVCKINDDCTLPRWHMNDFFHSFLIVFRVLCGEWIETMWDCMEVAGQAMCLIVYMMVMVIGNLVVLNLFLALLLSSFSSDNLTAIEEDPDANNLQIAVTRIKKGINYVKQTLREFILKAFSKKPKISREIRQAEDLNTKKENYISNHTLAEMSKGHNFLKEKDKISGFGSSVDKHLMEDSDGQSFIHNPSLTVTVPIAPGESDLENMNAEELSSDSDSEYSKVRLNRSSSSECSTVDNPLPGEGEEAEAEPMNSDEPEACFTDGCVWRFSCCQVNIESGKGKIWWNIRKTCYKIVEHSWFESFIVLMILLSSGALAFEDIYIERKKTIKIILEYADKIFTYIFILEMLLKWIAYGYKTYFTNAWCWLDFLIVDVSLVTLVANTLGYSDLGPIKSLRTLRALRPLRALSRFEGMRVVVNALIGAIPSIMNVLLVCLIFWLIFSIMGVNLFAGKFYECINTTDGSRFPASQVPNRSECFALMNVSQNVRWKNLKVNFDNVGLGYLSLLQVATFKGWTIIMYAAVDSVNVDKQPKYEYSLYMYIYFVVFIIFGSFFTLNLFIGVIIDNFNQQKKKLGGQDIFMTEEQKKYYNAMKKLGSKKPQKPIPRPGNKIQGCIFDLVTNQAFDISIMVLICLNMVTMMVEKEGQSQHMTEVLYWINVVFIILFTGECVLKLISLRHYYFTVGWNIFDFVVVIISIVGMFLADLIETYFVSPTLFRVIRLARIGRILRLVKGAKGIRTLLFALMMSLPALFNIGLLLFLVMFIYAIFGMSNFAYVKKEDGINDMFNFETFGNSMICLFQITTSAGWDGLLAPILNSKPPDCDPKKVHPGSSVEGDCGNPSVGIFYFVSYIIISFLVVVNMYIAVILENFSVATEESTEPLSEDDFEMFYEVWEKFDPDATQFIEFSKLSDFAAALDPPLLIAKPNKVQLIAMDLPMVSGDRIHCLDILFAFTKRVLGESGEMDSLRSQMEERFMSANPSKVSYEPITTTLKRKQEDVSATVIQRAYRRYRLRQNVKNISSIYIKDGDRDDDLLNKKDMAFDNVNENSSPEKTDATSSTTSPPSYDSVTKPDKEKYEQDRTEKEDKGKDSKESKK
As for `O=C1CC(C(=O)N2CCN(c3cccc4c3cnn4-c3ccccc3F)C2=O)C1` [Example 61, 1-[1-(2-fluorophenyl)-1H-indazol-4-yl]-3-[(3-oxocyclobutyl)carbonyl]imidazolidin-2-one], the IC50 worked out at 2240 nM.

As for `COc1nccnc1CN1CCN(c2cccc3c2cnn3-c2ccccc2F)C1=O` [Example 248, 1-[1-(2-fluorophenyl)-1H-indazol-4-yl]-3-[(3-methoxypyrazin-2-yl)methyl]imidazolidin-2-one], the IC50 turned out to be 1040 nM.

As for `Cc1noc(C)c1CN1CCCN(c2cccc3c2cnn3-c2ccccc2F)C1=O` [Example 258, 1-[(3,5-dimethyl-1,2-oxazol-4-yl)methyl]-3-[1-(2-fluorophenyl)-1H-indazol-4-yl]tetrahydropyrimidin-2(1H)-one], the IC50 was found to be 11000 nM.

In the case of `O=C1N(c2cccc3c2cnn3-c2ccccc2F)CCN1C1CCC(O)C1` (centres unmarked) [Example 204, 1-[1-(2-fluorophenyl)-1H-indazol-4-yl]-3-(3-hydroxycyclopentyl)imidazolidin-2-one], the IC50 worked out at 3410 nM.

For the molecule `O=C(CN1CCN(c2cccc3c2cnn3-c2ccccc2)C1=O)N1CCCC1` [Example 277, 1-[2-oxo-2-(pyrrolidin-1-yl)ethyl]-3-(1-phenyl-1H-indazol-4-yl)imidazolidin-2-one], the IC50 worked out at 3060 nM.

`C[C@@H]1CN(c2cccc3c2cnn3-c2ccccc2F)C(=O)N1C(=O)OC(C)(C)C` [Example 241, tert-butyl (5R)-3-[1-(2-fluorophenyl)-1H-indazol-4-yl]-5-methyl-2-oxoimidazolidine-1-carboxylate]: the IC50 amounted to 2350 nM.

In the case of `CN1C(=O)[C@H]2CN(C(=O)CN3CCN(c4cccc5c4cnn5-c4ccccc4F)C3=O)C[C@H]2C1=O` [Example 108, (3aR,6aS)-5-({3-[1-(2-fluorophenyl)-1H-indazol-4-yl]-2-oxoimidazolidin-1-yl}acetyl)-2-methyltetrahydropyrrolo[3,4-c]pyrrole-1,3(2H,3aH)-dione], the IC50 is 12300 nM.

Consider `O=C(CN1CCN(c2cccc3c2cnn3-c2ccccc2F)C1=O)c1cccnc1` [Example 152, 1-[1-(2-fluorophenyl)-1H-indazol-4-yl]-3-[2-oxo-2-(pyridin-3-yl)ethyl]imidazolidin-2-one], for which the half-maximal inhibitory concentration (IC50) came to 2260 nM.

As to `CC(C)NC(=O)CN1CCN(c2cccc3c2cnn3-c2ccccc2F)C1=O` [Example 95, 2-{3-[1-(2-fluorophenyl)-1H-indazol-4-yl]-2-oxoimidazolidin-1-yl}-N-isopropylacetamide], the IC50 worked out at 2680 nM.

In the case of `CC(C)CCCC(O)CN1CCN(c2cccc3c2cnn3-c2ccccc2F)C1=O` (centres unmarked) [Example 133, 1-[1-(2-fluorophenyl)-1H-indazol-4-yl]-3-(2-hydroxy-6-methylheptyl)imidazolidin-2-one], the concentration for half-maximal inhibition (IC50) came out at 525 nM.

As for `C[C@@H]1COCCN1C(=O)CN1CCN(c2cccc3c2cnn3-c2ccccc2F)C1=O` [Example 113, 1-[1-(2-fluorophenyl)-1H-indazol-4-yl]-3-{2-[(3R)-3-methylmorpholin-4-yl]-2-oxoethyl}imidazolidin-2-one], the IC50 amounted to 2270 nM.

As for `CC(C)C(=O)CN1CCN(c2cccc3c2cnn3-c2ccccc2F)C1=O` [Example 162, 1-[1-(2-fluorophenyl)-1H-indazol-4-yl]-3-(3-methyl-2-oxobutyl)imidazolidin-2-one], the IC50 worked out at 729 nM.

Take `Cc1nnc(CN2CCN(c3cccc4c3cnn4-c3ccc(F)cc3F)C2=O)s1` [Example 234, 1-[1-(2,4-difluorophenyl)-1H-indazol-4-yl]-3-[(5-methyl-1,3,4-thiadiazol-2-yl)methyl]imidazolidin-2-one]: the IC50 turned out to be 2900 nM.

In the case of `O=C1N(c2cccc3c2cnn3-c2ccccc2F)CCN1[C@H]1CO[C@@H](c2ccccc2F)C1` [Example 185, 1-[1-(2-fluorophenyl)-1H-indazol-4-yl]-3-[(3R,5R)-5-(2-fluorophenyl)tetrahydrofuran-3-yl]imidazolidin-2-one], the IC50 was found to be 965 nM.

Turning to `O=C1N(c2cccc3c2cnn3-c2ccccc2F)CCN1C1CN(C(=O)C2(O)CC2)C1` [Example 269, 1-[1-(2-fluorophenyl)-1H-indazol-4-yl]-3-{1-[(1-hydroxycyclopropyl)carbonyl]azetidin-3-yl}imidazolidin-2-one], the 50% inhibitory concentration (IC50) was 5790 nM.

As for `O=C1N(c2cccc3c2cnn3-c2ccccc2F)CCN1C1CNC1` [Example 268, 1-(azetidin-3-yl)-3-[1-(2-fluorophenyl)-1H-indazol-4-yl]imidazolidin-2-one], the IC50 came out at 15000 nM.

Consider `O=C(CN1CCN(c2cccc3c2cnn3-c2ccccc2F)C1=O)c1cccc(F)c1` [Example 150, 1-[1-(2-fluorophenyl)-1H-indazol-4-yl]-3-[2-(3-fluorophenyl)-2-oxoethyl]imidazolidin-2-one], for which the IC50 amounted to 3160 nM.

Turning to `O=C1N(c2ccccn2)CCN1c1cccc2c1cnn2-c1ccccc1F` [Example 130, 1-[1-(2-fluorophenyl)-1H-indazol-4-yl]-3-(pyridin-2-yl)imidazolidin-2-one], the IC50 came out at 1850 nM.

In the case of `O=C(CN1CCN(c2cccc3c2cnn3-c2ccccn2)C1=O)N1CCCC1` [Example 278, 1-[2-oxo-2-(pyrrolidin-1-yl)ethyl]-3-[1-(pyridin-2-yl)-1H-indazol-4-yl]imidazolidin-2-one], the IC50 amounted to 5780 nM.

For the molecule `CC1(CN2CCN(c3cccc4c3cnn4-c3ccccc3F)C2=O)COC1` [Example 213, 1-[1-(2-fluorophenyl)-1H-indazol-4-yl]-3-[(3-methyloxetan-3-yl)methyl]imidazolidin-2-one], the IC50 came to 3650 nM.

In the case of `CC(C)[C@@H]1CCCN1C(=O)CN1CCN(c2cccc3c2cnn3-c2ccccc2F)C1=O` [Example 125, 1-[1-(2-fluorophenyl)-1H-indazol-4-yl]-3-{2-[(2S)-2-isopropylpyrrolidin-1-yl]-2-oxoethyl}imidazolidin-2-one], the IC50 worked out at 1410 nM.

`O=C(CN1CCN(c2cccc3c2cnn3-c2ccccc2F)C1=O)C1CCC1` [Example 164, 1-(2-cyclobutyl-2-oxoethyl)-3-[1-(2-fluorophenyl)-1H-indazol-4-yl]imidazolidin-2-one]: the IC50 is 635 nM.

With `CCOC(=O)/C=C\N1CCN(c2cccc3c2cnn3-c2ccccc2F)C1=O` [Example 287, ethyl (2Z)-3-{3-[1-(2-fluorophenyl)-1H-indazol-4-yl]-2-oxoimidazolidin-1-yl}acrylate], the IC50 stood at 5800 nM.

On to `CCS(=O)(=O)N1CCN(c2cccc3c2cnn3-c2ccccc2F)C1=O` [Example 83, 1-(ethylsulfonyl)-3-[1-(2-fluorophenyl)-1H-indazol-4-yl]imidazolidin-2-one], for which the IC50 amounted to 20000 nM.

Consider `O=C(CN1CCN(c2cccc3c2cnn3-c2ccccc2F)C1=O)NC1CCC(F)(F)CC1` [Example 356, N-(4,4-difluorocyclohexyl)-2-{3-[1-(2-fluorophenyl)-1H-indazol-4-yl]-2-oxoimidazolidin-1-yl}acetamide], for which the IC50 turned out to be 1860 nM.

Regarding `C[C@H]1CCN(C(=O)CN2CCN(c3cccc4c3cnn4-c3ccccc3F)C2=O)C1` [Example 90, 1-[1-(2-fluorophenyl)-1H-indazol-4-yl]-3-{2-[(3S)-3-methylpyrrolidin-1-yl]-2-oxoethyl}imidazolidin-2-one], the IC50 is 1720 nM.

As usually defined, the IC50 is the midpoint of a concentration-inhibition curve.
